Organism: Rattus norvegicus
Assay type: toxicity, organism-based, Sprague-Dawley
Conditions: in vivo, po, route oral GAVAGE, vehicle 100 % SALINE; for ABSOLUTE EOSINOPHIL / ABSOLUTE LYMPHOCYTE / ABSOLUTE MONOCYTE / ABSOLUTE SEGMENTED NEUTROPHIL / BASOPHIL / EOSINOPHIL / ERYTHROCYTE COUNT / HEMATOCRIT / HEMOGLOBIN / LEUKOCYTE COUNT / LYMPHOCYTE / MEAN CORPUSCULAR HEMOGLOBIN / MEAN CORPUSCULAR HEMOGLOBIN CONCENTRATION / MEAN CORPUSCULAR VOLUME / MONOCYTE / NEUTROPHIL / NUCLEATED RED BLOOD CELLS / PLATELET COUNT: tissue Blood; for ALANINE AMINOTRANSFERASE / ALBUMIN / ALKALINE PHOSPHATASE / ASPARTATE AMINOTRANSFERASE / BLOOD UREA NITROGEN / CARBON DIOXIDE / CHLORIDE / CHOLESTEROL / CREATINE PHOSPHOKINASE / CREATININE / GLUCOSE / LACTATE DEHYDROGENASE / LIPASE / PHOSPHORUS / POTASSIUM / SODIUM / TOTAL BILIRUBIN / TOTAL PROTEIN / URIC ACID: tissue Plasma
[1] = 10 mg/kg, 24 h, dose level Low, time 1 day
[2] = 30 mg/kg, 6 h, dose level High, time 0.25 day
[3] = 30 mg/kg, 24 h, dose level High, time 1 day

Description: DrugMatrix - Regimen: Single

O=[As][O-].[Na+] [SODIUM ARSENITE]
ABSOLUTE EOSINOPHIL [1]: 15.17 CELLS/uL
ABSOLUTE LYMPHOCYTE [1]: 9656.17 CELLS/uL
ABSOLUTE MONOCYTE [1]: 190.33 CELLS/uL
ABSOLUTE SEGMENTED NEUTROPHIL [1]: 505 CELLS/uL
BASOPHIL [1]: 0%
EOSINOPHIL [1]: 0.17%
ERYTHROCYTE COUNT [1]: 4.96 x10E6/uL
HEMATOCRIT [1]: 32.55%
HEMOGLOBIN [1]: 12.85 G/DL
LEUKOCYTE COUNT [1]: 10.37 x10E3/uL
LYMPHOCYTE [1]: 93%
MEAN CORPUSCULAR HEMOGLOBIN [1]: 25.92 pg
MEAN CORPUSCULAR HEMOGLOBIN CONCENTRATION [1]: 39.47 G/DL
MEAN CORPUSCULAR VOLUME [1]: 65.67 fL
MONOCYTE [1]: 1.83%
NEUTROPHIL [1]: 5%
NUCLEATED RED BLOOD CELLS [1]: 0 /100WBC
PLATELET COUNT [1]: 1030.17 x10E3/uL
ALANINE AMINOTRANSFERASE [1]: 32.83 u/L
ALBUMIN [1]: 4.12 G/DL
ALKALINE PHOSPHATASE [1]: 249.5 u/L
ASPARTATE AMINOTRANSFERASE [1]: 61.17 u/L
BLOOD UREA NITROGEN [1]: 11 mg/dL
CARBON DIOXIDE [1]: 31.17 mmol/L
CHLORIDE [1]: 98.33 MEQ/L
CHOLESTEROL [1]: 81.67 mg/dL
CREATINE PHOSPHOKINASE [1]: 185.5 u/L
CREATININE [1]: 0.18 mg/dL
GLUCOSE [1]: 153.5 mg/dL
LACTATE DEHYDROGENASE [1]: 58.67 u/L
LIPASE [1]: 9.83 u/L
PHOSPHORUS [1]: 10.27 mg/dL
POTASSIUM [1]: 5.57 MEQ/L
SODIUM [1]: 143.25 MEQ/L
TOTAL BILIRUBIN [1]: 0.13 mg/dL
TOTAL PROTEIN [1]: 5.97 G/DL
URIC ACID [1]: 0.45 mg/dL
ABSOLUTE EOSINOPHIL [2]: 50 CELLS/uL
ABSOLUTE LYMPHOCYTE [2]: 13297 CELLS/uL
ABSOLUTE MONOCYTE [2]: 256.33 CELLS/uL
ABSOLUTE SEGMENTED NEUTROPHIL [2]: 2130 CELLS/uL
BASOPHIL [2]: 0%
EOSINOPHIL [2]: 0.33%
ERYTHROCYTE COUNT [2]: 5.91 x10E6/uL
HEMATOCRIT [2]: 39.97%
HEMOGLOBIN [2]: 14.47 G/DL
LEUKOCYTE COUNT [2]: 15.73 x10E3/uL
LYMPHOCYTE [2]: 84.67%
MEAN CORPUSCULAR HEMOGLOBIN [2]: 24.55 pg
MEAN CORPUSCULAR HEMOGLOBIN CONCENTRATION [2]: 36.2 G/DL
MEAN CORPUSCULAR VOLUME [2]: 67.78 fL
MONOCYTE [2]: 1.67%
NEUTROPHIL [2]: 13.33%
NUCLEATED RED BLOOD CELLS [2]: 0 /100WBC
PLATELET COUNT [2]: 1100.5 x10E3/uL
ALANINE AMINOTRANSFERASE [2]: 96.5 u/L
ALBUMIN [2]: 4.35 G/DL
ALKALINE PHOSPHATASE [2]: 225.33 u/L
ASPARTATE AMINOTRANSFERASE [2]: 192.17 u/L
BLOOD UREA NITROGEN [2]: 19.33 mg/dL
CARBON DIOXIDE [2]: 17.5 mmol/L
CHLORIDE [2]: 99.67 MEQ/L
CHOLESTEROL [2]: 64.33 mg/dL
CREATINE PHOSPHOKINASE [2]: 1132 u/L
CREATININE [2]: 0.23 mg/dL
GLUCOSE [2]: 205 mg/dL
LACTATE DEHYDROGENASE [2]: 746.17 u/L
LIPASE [2]: 8.17 u/L
PHOSPHORUS [2]: 16.53 mg/dL
POTASSIUM [2]: 6.95 MEQ/L
SODIUM [2]: 140.37 MEQ/L
TOTAL BILIRUBIN [2]: 0.2 mg/dL
TOTAL PROTEIN [2]: 5.83 G/DL
URIC ACID [2]: 4.12 mg/dL
ABSOLUTE EOSINOPHIL [3]: 0 CELLS/uL
ABSOLUTE LYMPHOCYTE [3]: 12176.83 CELLS/uL
ABSOLUTE MONOCYTE [3]: 320 CELLS/uL
ABSOLUTE SEGMENTED NEUTROPHIL [3]: 353.17 CELLS/uL
BASOPHIL [3]: 0%
EOSINOPHIL [3]: 0%
ERYTHROCYTE COUNT [3]: 5.64 x10E6/uL
HEMATOCRIT [3]: 36.4%
HEMOGLOBIN [3]: 14.38 G/DL
LEUKOCYTE COUNT [3]: 12.85 x10E3/uL
LYMPHOCYTE [3]: 94.83%
MEAN CORPUSCULAR HEMOGLOBIN [3]: 25.55 pg
MEAN CORPUSCULAR HEMOGLOBIN CONCENTRATION [3]: 39.53 G/DL
MEAN CORPUSCULAR VOLUME [3]: 64.63 fL
MONOCYTE [3]: 2.33%
NEUTROPHIL [3]: 2.83%
NUCLEATED RED BLOOD CELLS [3]: 0.17 /100WBC
PLATELET COUNT [3]: 1165.33 x10E3/uL
ALANINE AMINOTRANSFERASE [3]: 12.67 u/L
ALBUMIN [3]: 3.88 G/DL
ALKALINE PHOSPHATASE [3]: 235.5 u/L
ASPARTATE AMINOTRANSFERASE [3]: 43.83 u/L
BLOOD UREA NITROGEN [3]: 14.83 mg/dL
CARBON DIOXIDE [3]: 30.67 mmol/L
CHLORIDE [3]: 99.5 MEQ/L
CHOLESTEROL [3]: 62.17 mg/dL
CREATINE PHOSPHOKINASE [3]: 219.17 u/L
CREATININE [3]: 0.2 mg/dL
GLUCOSE [3]: 139.5 mg/dL
LACTATE DEHYDROGENASE [3]: 82 u/L
LIPASE [3]: 9 u/L
PHOSPHORUS [3]: 10.38 mg/dL
POTASSIUM [3]: 5.78 MEQ/L
SODIUM [3]: 143.5 MEQ/L
TOTAL BILIRUBIN [3]: 0.12 mg/dL
TOTAL PROTEIN [3]: 5.75 G/DL
URIC ACID [3]: 0.75 mg/dL

— ChEMBL document CHEMBL3885881, “DrugMatrix”
